US20200085776A1, “Methods of Reducing C-Reactive Protein and/or Treating Cardiovascular Disease” (CARDAX, INC., priority 2018, published 2020)

System: C-reactive protein (CRP)
Assay: CRP (hs-CRP) in blood, CHASE clinical study
Type: in vivo, human
Conditions: Group Z 48 mg BID; for CRP Max / CRP Mean (SD) / CRP Median / CRP Min: V6 Week 12
Description: This is a two-part study comprising Part I and Part II. Following screening, Part I consists of a randomized, double-blind, placebo controlled dosing period of up to 12 weeks. The study shall be conducted at one or more study sites in Hawaii. Approximately 360 subjects qualified after completion of screening procedures shall be randomized in a 1:1:1 ratio to one of three treatment groups, per Table 1.
The Part I 12-week double-blind dosing period commences with V2, including randomization and first dose of study product, and continues with study visits at Week 1-2 (V3), Week 4 (V4), Week 8 (V5), and Week 12 (V6). V6 procedures will conclude Part I.
Blood shall be obtained at each visit for CRP. The screening specimen shall be processed at the local lab and reported to the study staff for eligibility determination; CRP samples at V7 and V8 may also be processed locally and reported directly to study staff. Samples for CRP from V2 through V6 may be batched, processed, and reported as specified in the Laboratory Manual.
At each these visits, blood was obtained for measurement of CRP, among other parameters. Table 7A provides a summary of the CRP measurements (mg/L) at each visit and Table 7B provides a summary of the differences of CRP levels between V2 and V6.

[1] = subjects with DM2, hypertension and hyperlipidemia but not CAD
[2] = subjects with Diabetes Mellitus Type II
[3] = subjects with baseline level greater than 2.0
[4] = baseline to Week 12, all subjects
[5] = baseline to Week 12, subjects not taking a hypertension agent
[6] = baseline to Week 12, subjects not taking any cardiac therapeutic agent
[7] = baseline to Week 12, subjects not taking statins
[8] = baseline to Week 12, subjects taking an anti-diabetic agent
[9] = baseline to Week 12, subjects with CAD
[10] = baseline to Week 12, subjects with DM2, hypertension and hyperlipidemia but not CAD
[11] = baseline to Week 12, subjects with Diabetes Mellitus Type II
[12] = baseline to Week 12, subjects with baseline level greater than 2.0
[13] = baseline to Week 12, subjects with hyperlipidemia

## CC1=C(/C=C/C(C)=C/C=C/C(C)=C/C=C/C=C(C)/C=C/C=C(C)/C=C/C2=C(C)C(=O)C(O)CC2(C)C)C(C)(C)CC(O)C1=O (stereo not drawn) [Astaxanthin, astaxanthin]
[1]
  CRP Max: 6.14 mg/L
  CRP Mean (SD): 3.38 (1.57) mg/L
  CRP Median: 2.58 mg/L
  CRP Min: 2.48 mg/L
[2]
  CRP Max: 8.84 mg/L
  CRP Mean (SD): 3.77 (2.70) mg/L
  CRP Median: 2.56 mg/L
  CRP Min: 0.61 mg/L
[3]
  CRP Max: 8.84 mg/L
  CRP Mean (SD): 3.88 (2.42) mg/L
  CRP Median: 2.89 mg/L
  CRP Min: 0.61 mg/L
Subjects with hyperlipidemia
  CRP Max: 6.14 mg/L
  CRP Mean (SD): 2.54 (1.29) mg/L
  CRP Median: 2.31 mg/L
  CRP Min: 0.61 mg/L
[4]
  CRP V2 to V6 % Change Max: 81.89%
  CRP V2 to V6 % Change Mean: −8.48%
  CRP V2 to V6 % Change Median: −27.9%
  CRP V2 to V6 % Change Min: −90.9%
  CRP V2 to V6 Change Max: 2.58 mg/L
  CRP V2 to V6 Change Mean: -0.87 mg/L
  CRP V2 to V6 Change Median: -0.65 mg/L
  CRP V2 to V6 Change Min: -6.07 mg/L
[5]
  CRP V2 to V6 % Change Max: −4.25%
  CRP V2 to V6 % Change Mean (SD): −30.8 (26.09) %
  CRP V2 to V6 % Change Median: −31.8%
  CRP V2 to V6 % Change Min: −56.4%
  CRP V2 to V6 Change Max: -0.11 mg/L
  CRP V2 to V6 Change Mean (SD): −1.58 (1.32) mg/L
  CRP V2 to V6 Change Median: -2.00 mg/L
  CRP V2 to V6 Change Min: -2.64 mg/L
[6]
  CRP V2 to V6 % Change Max: 71.27%
  CRP V2 to V6 % Change Mean (SD): −23.7 (41.82) %
  CRP V2 to V6 % Change Median: −31.5%
  CRP V2 to V6 % Change Min: −90.9%
  CRP V2 to V6 Change Max: 1.29 mg/L
  CRP V2 to V6 Change Mean (SD): −1.42 (2.01) mg/L
  CRP V2 to V6 Change Median: -1.24 mg/L
  CRP V2 to V6 Change Min: -6.07 mg/L
[7]
  CRP V2 to V6 % Change Max: 19.13%
  CRP V2 to V6 % Change Mean (SD): −14.9 (28.11) %
  CRP V2 to V6 % Change Median: −17.6%
  CRP V2 to V6 % Change Min: −56.4%
  CRP V2 to V6 Change Max: 0.80 mg/L
  CRP V2 to V6 Change Mean (SD): −0.81 (1.42) mg/L
  CRP V2 to V6 Change Median: -0.71 mg/L
  CRP V2 to V6 Change Min: -2.64 mg/L
[8]
  CRP V2 to V6 % Change** Max: 81.89%
  CRP V2 to V6 % Change** Mean (SD): −16.9 (49.24) %
  CRP V2 to V6 % Change** Median: −30.7%
  CRP V2 to V6 % Change** Min: −90.9%
  CRP V2 to V6 Change Max: 2.58 mg/L
  CRP V2 to V6 Change Mean (SD): −1.18 (2.36) mg/L
  CRP V2 to V6 Change Median: -1.14 mg/L
  CRP V2 to V6 Change Min: -6.07 mg/L
[9]
  CRP V2 to V6 % Change Max: 81.89%
  CRP V2 to V6 % Change Mean (SD): −28.8 (65.35) %
  CRP V2 to V6 % Change Median: −39.7%
  CRP V2 to V6 % Change Min: −90.9%
  CRP V2 to V6 Change Max: 1.04 mg/L
  CRP V2 to V6 Change Mean (SD): −1.91 (2.67) mg/L
  CRP V2 to V6 Change Median: -1.24 mg/L
  CRP V2 to V6 Change Min: -6.07 mg/L
[10]
  CRP V2 to V6 % Change Max: −4.25%
  CRP V2 to V6 % Change Mean (SD): −32.6 (18.99) %
  CRP V2 to V6 % Change Median: −30.7%
  CRP V2 to V6 % Change Min: −50.4%
  CRP V2 to V6 Change Max: -0.11 mg/L
  CRP V2 to V6 Change Mean (SD): −1.87 (1.24) mg/L
  CRP V2 to V6 Change Median: -2.37 mg/L
  CRP V2 to V6 Change Min: -3.24 mg/L
[11]
  CRP V2 to V6 % Change Max: 81.89%
  CRP V2 to V6 % Change Mean (SD): −14.7 (47.59) %
  CRP V2 to V6 % Change Median: −29.3%
  CRP V2 to V6 % Change Min: −90.9%
  CRP V2 to V6 Change Max: 2.58 mg/L
  CRP V2 to V6 Change Mean (SD): −1.01 (2.32) mg/L
  CRP V2 to V6 Change Median: -0.90 mg/L
  CRP V2 to V6 Change Min: -6.07 mg/L
[12]
  CRP V2 to V6 % Change Max: 48.77%
  CRP V2 to V6 % Change Mean (SD): −24.8 (35.03) %
  CRP V2 to V6 % Change Median: −31.1%
  CRP V2 to V6 % Change Min: −90.9%
  CRP V2 to V6 Change Max: 2.58 mg/L
  CRP V2 to V6 Change Mean (SD): −1.37 (2.11) mg/L
  CRP V2 to V6 Change Median: -1.54 mg/L
  CRP V2 to V6 Change Min: -6.07 mg/L
[13]
  CRP V2 to V6 % Change Max: 81.89%
  CRP V2 to V6 % Change Mean (SD): −13.6 (49.58) %
  CRP V2 to V6 % Change Median: −30.7%
  CRP V2 to V6 % Change Min: −90.9%
  CRP V2 to V6 Change Max: 1.29 mg/L
  CRP V2 to V6 Change Mean (SD): −1.24 (1.95) mg/L
  CRP V2 to V6 Change Median: -1.14 mg/L
  CRP V2 to V6 Change Min: -6.07 mg/L
